Laboratory results from paper PMC11181338 (Journal of Medicinal Chemistry, 2024).

Legend:
KCNT2 = conditions: up to 10 μM, Tl+ flux assay; cited from earlier work
hERG = hERG (Homo sapiens, UniProt Q12809); assay: Whole-cell patch-clamp, CHO cells transiently transfected with hERG; conditions: for inhibition at 10 µM: human, pH 7.4, % of hERG inhibition, tail currents at −100 mV; for hERG-blocking activity: 10 μM
human KCNT1 [1] = target: T1, human KCNT1 (Homo sapiens, UniProt Q5JUK3); assay: FluxOR thallium; assay type: cell-based
T1 sequence (Q5JUK3 1-1256 isoform Q5JUK3-2): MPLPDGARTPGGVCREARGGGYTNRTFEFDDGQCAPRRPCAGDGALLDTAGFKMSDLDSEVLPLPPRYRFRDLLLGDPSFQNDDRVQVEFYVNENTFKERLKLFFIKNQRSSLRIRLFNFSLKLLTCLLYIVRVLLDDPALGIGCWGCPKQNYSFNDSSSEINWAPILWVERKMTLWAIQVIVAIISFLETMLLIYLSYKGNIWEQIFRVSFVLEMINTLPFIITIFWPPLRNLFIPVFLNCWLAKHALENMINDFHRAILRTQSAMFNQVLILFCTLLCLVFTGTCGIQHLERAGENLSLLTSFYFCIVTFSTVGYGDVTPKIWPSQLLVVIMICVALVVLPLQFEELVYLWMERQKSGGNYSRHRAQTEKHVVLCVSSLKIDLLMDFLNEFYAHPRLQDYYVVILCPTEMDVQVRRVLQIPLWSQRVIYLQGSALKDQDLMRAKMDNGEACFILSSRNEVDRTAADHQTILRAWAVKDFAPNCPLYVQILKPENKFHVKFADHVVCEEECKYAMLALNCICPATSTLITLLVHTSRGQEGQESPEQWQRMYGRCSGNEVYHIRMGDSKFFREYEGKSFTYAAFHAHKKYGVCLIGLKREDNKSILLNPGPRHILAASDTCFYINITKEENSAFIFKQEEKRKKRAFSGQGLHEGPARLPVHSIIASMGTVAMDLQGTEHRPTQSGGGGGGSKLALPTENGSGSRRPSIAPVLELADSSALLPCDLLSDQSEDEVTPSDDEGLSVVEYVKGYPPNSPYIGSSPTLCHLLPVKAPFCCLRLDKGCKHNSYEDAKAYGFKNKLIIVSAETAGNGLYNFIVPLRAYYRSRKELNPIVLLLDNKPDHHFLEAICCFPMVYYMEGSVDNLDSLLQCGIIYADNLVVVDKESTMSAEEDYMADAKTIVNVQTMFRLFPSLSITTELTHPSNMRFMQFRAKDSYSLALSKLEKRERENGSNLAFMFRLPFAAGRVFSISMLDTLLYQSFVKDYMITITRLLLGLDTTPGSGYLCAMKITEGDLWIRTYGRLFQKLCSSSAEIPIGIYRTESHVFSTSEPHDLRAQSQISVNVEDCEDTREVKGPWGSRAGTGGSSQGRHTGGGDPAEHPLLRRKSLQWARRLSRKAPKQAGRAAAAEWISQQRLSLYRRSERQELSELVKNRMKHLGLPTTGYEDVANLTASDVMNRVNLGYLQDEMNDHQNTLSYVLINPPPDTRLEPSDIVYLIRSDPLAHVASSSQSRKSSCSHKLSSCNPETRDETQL

human KCNT1 [2] = target: T1, human KCNT1; assay: Whole-cell patch-clamp, CHO cells transiently transfected with hKCNT1; assay type: cell-based; conditions: 10 μM
hERG channels = conditions: cited from earlier work; for % of hERG current blocked: 10 μM
KCNT1 = conditions: read-out: KCNT1 IC50; cited from earlier work
Plasma protein binding = assay type: in vitro ADME; conditions: 10 μM, 4 h, 37 °C
[3] = In vitro drug metabolism using human liver microsomes; conditions: HLM
Human plasma stability = assay type: in vitro ADME
[4] = tested on: KCNT1 versus KCNT2 channels; conditions: cited from earlier work
human KCNT2 = target: T2, human KCNT2 (Homo sapiens, UniProt Q6UVM3); assay: Whole-cell patch-clamp, HEK cells expressing KCNT2; assay type: cell-based; conditions: KCNT2 currents
T2 sequence (Q6UVM3 1-1135): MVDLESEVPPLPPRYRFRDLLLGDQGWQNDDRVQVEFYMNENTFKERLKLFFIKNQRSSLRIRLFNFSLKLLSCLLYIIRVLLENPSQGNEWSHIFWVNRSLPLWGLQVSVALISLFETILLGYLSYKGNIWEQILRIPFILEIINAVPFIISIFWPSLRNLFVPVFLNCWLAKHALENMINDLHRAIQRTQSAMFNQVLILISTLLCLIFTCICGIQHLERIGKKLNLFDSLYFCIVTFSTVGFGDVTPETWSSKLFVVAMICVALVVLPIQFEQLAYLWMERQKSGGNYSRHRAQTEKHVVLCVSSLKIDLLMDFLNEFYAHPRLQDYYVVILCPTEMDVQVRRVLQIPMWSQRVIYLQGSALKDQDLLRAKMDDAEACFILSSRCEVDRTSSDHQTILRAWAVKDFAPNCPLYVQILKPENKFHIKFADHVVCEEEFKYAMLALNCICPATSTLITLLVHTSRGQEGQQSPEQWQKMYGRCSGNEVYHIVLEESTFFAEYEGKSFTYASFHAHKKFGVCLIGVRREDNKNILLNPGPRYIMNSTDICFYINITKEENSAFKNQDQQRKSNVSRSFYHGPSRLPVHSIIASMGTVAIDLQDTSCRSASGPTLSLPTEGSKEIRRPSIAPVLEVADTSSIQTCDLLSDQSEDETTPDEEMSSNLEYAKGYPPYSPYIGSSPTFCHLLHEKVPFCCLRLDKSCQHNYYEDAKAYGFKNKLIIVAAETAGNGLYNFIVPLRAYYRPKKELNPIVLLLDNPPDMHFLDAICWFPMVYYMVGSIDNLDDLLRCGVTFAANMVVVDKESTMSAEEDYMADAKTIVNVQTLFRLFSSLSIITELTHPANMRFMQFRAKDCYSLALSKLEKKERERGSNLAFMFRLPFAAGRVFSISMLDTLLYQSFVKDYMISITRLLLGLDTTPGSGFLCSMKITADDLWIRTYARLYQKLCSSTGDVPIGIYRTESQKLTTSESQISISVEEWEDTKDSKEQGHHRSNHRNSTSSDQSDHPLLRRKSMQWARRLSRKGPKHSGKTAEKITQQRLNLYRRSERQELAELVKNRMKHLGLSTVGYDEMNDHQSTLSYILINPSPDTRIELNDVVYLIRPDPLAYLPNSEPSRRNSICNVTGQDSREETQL

untransfected CHO cells = assay: FluxOR Tl+ fluorescence assay in untransfected CHO cells; assay type: cell-based, Chinese Hamster; conditions: 10 μM

Chain of hERG (Q12809 whole entry): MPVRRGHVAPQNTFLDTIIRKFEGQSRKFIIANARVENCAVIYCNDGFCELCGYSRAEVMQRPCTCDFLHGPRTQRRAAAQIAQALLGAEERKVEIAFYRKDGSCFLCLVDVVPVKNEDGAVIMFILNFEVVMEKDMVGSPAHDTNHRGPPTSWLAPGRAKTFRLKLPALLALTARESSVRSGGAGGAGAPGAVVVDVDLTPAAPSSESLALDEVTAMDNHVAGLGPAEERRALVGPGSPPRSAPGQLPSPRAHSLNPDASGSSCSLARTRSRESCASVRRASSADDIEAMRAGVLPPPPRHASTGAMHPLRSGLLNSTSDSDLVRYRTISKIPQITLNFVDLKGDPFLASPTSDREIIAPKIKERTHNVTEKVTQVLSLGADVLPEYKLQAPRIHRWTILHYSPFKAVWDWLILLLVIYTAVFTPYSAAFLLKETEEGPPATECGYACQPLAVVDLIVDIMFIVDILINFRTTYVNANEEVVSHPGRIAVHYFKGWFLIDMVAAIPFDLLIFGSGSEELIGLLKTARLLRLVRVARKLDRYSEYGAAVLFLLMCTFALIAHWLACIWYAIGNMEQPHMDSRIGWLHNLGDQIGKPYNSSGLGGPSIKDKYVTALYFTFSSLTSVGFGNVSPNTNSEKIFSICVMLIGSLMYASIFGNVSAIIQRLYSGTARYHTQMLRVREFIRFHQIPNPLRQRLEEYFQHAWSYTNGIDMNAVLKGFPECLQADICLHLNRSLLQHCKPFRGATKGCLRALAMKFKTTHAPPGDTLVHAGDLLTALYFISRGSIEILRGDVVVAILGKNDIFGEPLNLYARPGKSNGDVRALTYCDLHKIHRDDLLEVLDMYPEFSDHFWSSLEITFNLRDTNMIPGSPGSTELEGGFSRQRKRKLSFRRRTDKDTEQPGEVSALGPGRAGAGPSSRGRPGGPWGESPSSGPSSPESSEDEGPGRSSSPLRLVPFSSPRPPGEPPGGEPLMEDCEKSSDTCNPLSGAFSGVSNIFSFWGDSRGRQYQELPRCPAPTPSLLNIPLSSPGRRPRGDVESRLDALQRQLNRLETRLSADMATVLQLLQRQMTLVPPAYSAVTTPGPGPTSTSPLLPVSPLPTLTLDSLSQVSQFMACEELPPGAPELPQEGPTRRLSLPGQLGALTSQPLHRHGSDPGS

Q: For `COc1ccc(Cl)cc1NC(=O)CN1CCN(S(=O)(=O)N2CCC(C)CC2)CC1` [VU0606170], which “KCNT2 blocking effect” value (KCNT2) is on record?
A: The value was “no KCNT2 blocking effect”.

Q: With `CC(C)(C)CNC(=O)Nc1ccc2c(c1)CCN2Cc1ccc(F)cc1` [CPK4, 1-[1-(4-Fluorobenzyl)indolin-5-yl]-3-neopentylurea] as the compound, how does the inhibition at 10 µM (hERG) read?
A: Its inhibition at 10 µM is 30 to 40%.

Q: What about the “effect on the fluorescent signal” value (human KCNT1 [1]; 10 μM, followed by LOX 10 μM) of the same compound?
A: The value was “markedly reduced the fluorescent signal”.

Q: And the “blocking time constant (τon)” value (human KCNT1 [2])?
A: The value was 49.0 ± 9.6 s.

Q: Which “% of hERG current blocked” value (hERG channels) does the source give for `O=C(Nc1cccc(C(F)(F)F)c1)c1ccc2nc(N3C(=O)c4ccccc4C3=O)sc2c1` [BC12] here?
A: The value was 15–20%.

Q: Which “% of hERG current blocked” value (hERG channels) does the source give for `Cc1cc(O)ccc1N/C=C/C(=O)c1ccccc1` [BC13] here?
A: Its value is 15–20%.

Q: Which results are given for `C=C[C@H]1C[N@@]2CC[C@H]1C[C@@H]2[C@@H](O)c1ccnc2ccc(OC)cc12` [QND, quinidine]?
A: IC50 (KCNT1): 80 to 100 µM; IC50 (hERG channels; read-out: hERG IC50, heterologously expressed hERG channels): […]

Q: For `Oc1ccc2ccccc2c1CNCCc1c[nH]c2ccccc12` [CPK13, 1-{[(2-(1H-Indol-3-yl)ethyl]amino)methyl}naphthalen-2-ol], which inhibition at 10 µM (hERG) is on record?
A: The inhibition at 10 µM was 30 to 40%.

Q: And the “blocking time constant (τon)” value (human KCNT1 [2])?
A: The value was 17.7 ± 2.3 s.

Q: With `O=C(NCc1ccccc1)[C@H](Cc1c[nH]c2ccccc12)NCc1ccc(Oc2ccccc2)cc1` [CPK18, (S)-N-Benzyl-3-(1H-indol-3-yl)-2-[(4-phenoxybenzyl)amino]propanamide] as the compound, how does the “hERG-blocking activity” value (hERG) read?
A: Its value is “devoid of hERG-blocking activity”.

Q: And the “binding to plasma proteins” value (Plasma protein binding)?
A: Its value is 99%.

Q: And the clearance category [3]?
A: Its clearance category is “high”.

Q: And the CLint in vivo ([3]; NADPH + UDPGA, scaled with human PBSF)?
A: The CLint in vivo was less than 80 mL min^–1 kg^–1.

Q: What about the recovery at 120 min (Human plasma stability) of the same compound?
A: Its recovery at 120 min is no less than 80%.

Q: For `CCCCCCC[N+](CC)(CC)CCCCc1ccc(Cl)cc1` [clofilium], which “inhibitory potency KCNT1 versus KCNT2” value [4] is on record?
A: The value was “stronger inhibitory potency for KCNT1 versus KCNT2 channels”.

Q: With `O=S(=O)(Nc1ccc2c(c1)CCN2Cc1ccc(C(F)(F)F)cc1C(F)(F)F)C1CCCCC1` [CPK20, N-{1-[2,4-Bis(trifluoromethyl)benzyl]indolin-5-yl}cyclohexanesulfonamide] as the compound, how does the “Hill slope (k values)” value (human KCNT2) read?
A: The value was −0.57 ± 0.09 mV/efold.

Q: And the “hERG-blocking activity” value (hERG)?
A: Its value is “devoid of hERG-blocking activity”.

Q: And the “binding to plasma proteins” value (Plasma protein binding)?
A: The value was 99%.

Q: And the clearance category [3]?
A: Its clearance category is “low clearance”.

Q: And the CLint in vitro ([3]; NADPH + UDPGA)?
A: The CLint in vitro was less than 1 mL min^–1 kg^–1.

Q: And the recovery at 120 min (Human plasma stability)?
A: Its recovery at 120 min is no less than 80%.

Q: For `CN1CCN(C2=Nc3ccccc3Oc3ccc(Cl)cc32)CC1` [LOX, loxapine], which “slope of the Tl+ fluorescence curve” value (untransfected CHO cells) is on record?
A: The value was 0.0007 ± 0.0006.

Q: What about the EC50 (human KCNT1 [1]) of the same compound?
A: The EC50 was 4 ± 1.7 µM.

Q: And the “slope of the Tl+ fluorescence curve” value (human KCNT1 [1]; 10 μM, 15 min preincubation, KCNT1 stably transfected CHO cells)?
A: Its value is 0.041 ± 0.006.

Q: For `CCOC(=O)[C@@H]1CS[C@@]2(C(=O)Nc3ccc(Br)cc32)N1C(=O)c1ccc(Cl)cc1` [CPK16, (2′S,4′R)-Ethyl 5-bromo-3′-(4-chlorobenzoyl)-2-oxospiro[indoline-3,2′-thiazolidine]-4′-carboxylate], which “hERG-blocking activity” value (hERG) is on record?
A: The value was “devoid of hERG-blocking activity”.
